From ChEMBL document CHEMBL1151355, “The isolation of loliolide from an Indian Ocean opisthobranch mollusc” (1980) come the findings set out here.

One assay has as its system KB. Nature of the assay: Cytotoxicity against human KB cells. In kind it is functional. The settings on record: read-out: ED50 (the source's name).
In assay [1] the test system is P388. The assay is described as follows: Cytotoxicity against mouse P388 cells. In kind it is functional. The settings on record: read-out: ED50 (the source's name).
Assay [2] has as its system P388. Nature of the assay: In vivo cytotoxicity against mouse P388 cells at 2.5 to 10 mg/kg. In kind it is functional, organism-based.

Converted amounts (≈) assume the structure as drawn. The source made the active and inactive calls. No cut-off for these calls is given here.

As to `CC1(C)CC(O)C[C@@]2(C)OC(=O)C=C12` (stereo partly drawn), the EC50 in the assay on KB came out at 10 µg/mL (≈ 51 µM); in the assay with P388 [1], 3.5 µg/mL (≈ 17.8 µM). Moreover, in the assay with P388 [2], the outcome was inactive.
